Data published in PMC10285260, “Processive kinetics in the three-step lanosterol 14α-demethylation reaction catalyzed by human cytochrome P450 51A1” (The Journal of Biological Chemistry, 2023).
Read-outs that look alike come from different tables or passages of the source.

Assays:
[1] = system: human P450 51A1; assay: Kinetic modeling (KinTek Explorer) of the single-turnover time course
Excerpt: The initial koff rate constants used in fitting were the koff rates measured in the stopped-flow trap experiments (Fig. 9). All three oxidation reactions are irreversible, and thus k-2, k-4, and k-6 were set to zero.
Data were imported into KinTek Explorer software (v. 11.01, KinTek, https://kintekcorp.com/software) ([63], [64]) as txt files and processed using an Apple computer (operating system 11.6.2).

[2] = molecular target: T1, human P450 51A1 (Homo sapiens, UniProt Q16850); assay: Spectral (difference spectroscopy) Kd estimates of P450 51A1-sterol complexes; type: binding; parameters: made in house; host or cells: Escherichia coli
T1 sequence (Q16850 1-509): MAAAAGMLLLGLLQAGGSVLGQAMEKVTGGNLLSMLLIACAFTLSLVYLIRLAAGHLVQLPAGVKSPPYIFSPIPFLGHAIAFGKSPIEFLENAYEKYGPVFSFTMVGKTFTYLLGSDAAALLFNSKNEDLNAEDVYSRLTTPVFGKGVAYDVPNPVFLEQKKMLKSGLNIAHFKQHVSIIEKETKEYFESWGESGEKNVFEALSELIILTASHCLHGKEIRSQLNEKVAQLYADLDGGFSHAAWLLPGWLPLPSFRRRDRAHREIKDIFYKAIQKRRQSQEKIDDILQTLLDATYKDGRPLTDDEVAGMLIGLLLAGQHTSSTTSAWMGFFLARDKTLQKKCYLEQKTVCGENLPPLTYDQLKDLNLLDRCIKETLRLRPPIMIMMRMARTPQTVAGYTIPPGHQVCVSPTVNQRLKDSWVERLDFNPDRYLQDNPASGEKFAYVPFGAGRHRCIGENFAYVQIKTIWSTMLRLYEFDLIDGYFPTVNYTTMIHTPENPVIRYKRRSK
Protocol: Kd values were estimated by difference spectroscopy. P450 51A1 (1.0 μM) was in each of two glass cuvettes (in 100 mM potassium phosphate buffer, pH 7.4) and a baseline was recorded (OLIS-Amino DW2a). Aliquots of a solution of each sterol–HPCD complex were added to the sample cuvette and an equivalent amount of HPCD was added to the reference cuvette, and spectra were recorded. The time between the collection of individual spectra was ∼3 min. The maximum absorbance difference (usually ΔA390-A418) was plotted versus the nominal concentration of added sterol, and the data were fit to hyperbolae in GraphPad Prism software (GraphPad, https://www.graphpad.com), using a quadratic equation to correct the ligand concentration for the enzyme-bound concentration (used as Y=B+(A/2)∗(1/E)∗((Kd+E+X)-sqrt((Kd + E+X)^∧2-(4∗E∗X)) in Prism software). The linear regression fits include the internal error estimates (SE).

[3] = molecular target: T1, human P450 51A1; assay: Stopped-flow koff measurements of P450 51A1-sterol complexes with ketoconazole trap; type: binding; parameters: made in house; host or cells: Escherichia coli; conditions: 23 °C, 10 μM ketoconazole trap, 1 μM P450 51A1
Protocol: All assays were done at 23 °C in an OLIS-RSM 1000 stopped-flow spectrophotometer, collecting data every 1 ms over a range of 332 to 565 nm with slit widths of 1.24 mm (8 nm bandpass) and gratings with 400 lines/mm and 500 nm blaze. One syringe contained 20 μM ketoconazole dissolved in 100 mM potassium phosphate buffer (pH 7.4). In a preliminary experiment in which this was mixed with an equal volume of 2 μM P450 51A1 (same buffer), the observed rate of binding (ΔA430) was 25 s^−1.
P450 51A1 (2 μM) was premixed with an equivalent concentration of each of the sterols (in HPCD). Each of these solutions was placed in a drive syringe and rapidly mixed with 20 μM ketoconazole (yielding final concentrations of 1 μM P450 51A1 and 10 μM ketoconazole). The rate of the ΔA430-A390 change was used as the koff rate, that is, the rate at which the sterol left the P450 and allowed it to bind to the trap ligand ketoconazole.

[4] = molecular target: T1, human P450 51A1; assay: Single-turnover rapid-quench kinetics of [3-3H]-dihydrolanosterol oxidation (radio-HPLC); type: biochemical; parameters: made in house; host or cells: Escherichia coli
Protocol: All products were separated and quantified by radio-HPLC (Fig. S24).
Samples (held at 4 °C) were injected (45 μl) onto a Nova-Pak 3.9 mm × 150 mm (4 μm) octadecylsilane (C18) HPLC column (held at 23 °C). The products were separated at a flow rate of 1.0 ml min^−1 using an isocratic mobile phase composed of CH3CN (only) as was done for the LC-UV assays (above). The eluate from the column was mixed (1:2, v-v) with FlowLogic U scintillation cocktail, and radioactivity (^3H) was detected on a β-RAM Model 5 system (IN/US, LabLogic) (Fig. S24). Product formation was assessed as the relative contribution of each peak (in CPM) to the summed peak area of substrate and product(s).
The single-turnover experiments were performed using a KinTek rapid quench-flow apparatus (KinTek). This machine functions by forcing equal volumes (∼19 μl) of two separate solutions into a central mixing chamber, where the components are allowed to incubate for a predetermined period of time before an excess volume of quench solution (∼160 μl) stops the reaction and expels the mixture from the apparatus. […] After the predetermined incubation period, the reaction (37 °C) was quenched with HCl (1 M), and the mixture (∼200 μl) was collected into vials. The products of five identical reactions (time points) were combined and were extracted into CH2Cl2 (5 ml). An aliquot (4 ml) of the lower (organic) layer was removed into a fresh vial, and the extraction was repeated to maximize sample recovery. The pooled organic fraction (∼8 ml) was brought to dryness under a stream of N2 gas, and the residue was redissolved in 60 μl of CH3OH and transferred to LC vials for analysis.

[5] = molecular target: T1, human P450 51A1; assay: Steady-state LC-UV assay of sterol oxidation to dihydro FF-MAS by reconstituted P450 51A1; conditions: oxidation to dihydro FF-MAS (epi-dihydro FF-MAS from epi substrate), 37 °C
Protocol: Steady-state incubations (500 μl) were generally done at 37 °C with 0.025 μM P450 51A1, 0.10 μM NADPH-P450 reductase, 100 μM L-α-dilauroyl-sn-glycero-3-phosphocholine, 50 mM potassium phosphate buffer (pH 7.4), 10% (v/v) glycerol, and an indicated concentration of each sterol (in 45% (w/v) HPCD). […] The sterols (stored at 4 °C) were prepared as described above and were heated to 37 °C and sonicated prior to use. Sterol working stocks were diluted in HPCD to ensure a constant concentration of cyclodextrin in each reaction. […] Accordingly, all reactions were done with this concentration of glycerol.
Reactions were preincubated (5 min, 37 °C) prior to initiation with an NADPH-regenerating system (0.5 mM NADP^+, 10 mM glucose 6-phosphate, and 2 μg ml^−1 glucose 6-phosphate dehydrogenase) ([60]) and were stopped after 5 min with the addition of CH2Cl2 (5 ml). (The NADPH-generating system, in addition to lower cost than NADPH, drives the reaction to avoid inhibition of the reductase by accumulated NADP^+). For the 14α-aldehyde, the times of preincubation and reaction were reduced (to 2 min and 1 min, respectively). The quenched mixture was centrifuged (2000g, 5 min), and 4 ml of the bottom (organic) layer was transferred to vials and brought to dryness under a stream of N2 gas. The dried residue was resuspended in CH3OH (100 μl) and was analyzed by UPLC using a 2.1 mm × 100 mm (1.7 μm) octadecylsilane (C18) column (held at 25 °C) and a Waters Acquity UPLC system. Samples (4 °C) were injected (10 μl) at a flow rate of 0.20 ml min^−1 using an isocratic mobile phase of CH3CN (only). The product (FF-MAS) was detected using a Waters Acquity photodiode array detector set at 250 nm (Fig. 4B). Data were processed using the MassLynx software (http://www.waters.com/waters/en_US/MassLynx-Mass-Spectrometry-Software-/nav.htm?cid=513164&locale=en_US), and the amount of product formed was calculated by comparison to a twelve-point dihydro FF-MAS standard curve. Determination of kcat and Km for each reaction was carried out by fitting the data to a Michaelis–Menten hyperbola, which was done using GraphPad Prism.
Incubations were run in triplicate, and the mean values (±SD) were calculated and plotted. The linear regression fits include the Prism error estimates for internal fitting (SE).

[6] = molecular target: T1, human P450 51A1; assay: Stopped-flow rate of ketoconazole binding to P450 51A1; parameters: made in house; host or cells: Escherichia coli; conditions: 10 μM ketoconazole, 1 μM P450 51A1 final
[7] = substrate: CC(C)CCCC(C)[C@H]1CC[C@@]2(C)C3=C(CC[C@]12C)[C@@]1(C)CC[C@@H](O)C(C)(C)C1CC3; assay: purified protein, by the assay type; conditions: other: oxidation to dihydro FF-MAS (epi-dihydro FF-MAS from epi substrate), 37 °C, pH 7.4
Protocol: (§1) Steady-state incubations (500 μl) were generally done at 37 °C with 0.025 μM P450 51A1, 0.10 μM NADPH-P450 reductase, 100 μM L-α-dilauroyl-sn-glycero-3-phosphocholine, 50 mM potassium phosphate buffer (pH 7.4), 10% (v/v) glycerol, and an indicated concentration of each sterol (in 45% (w/v) HPCD). Due to the high turnover rate of the 14α-aldehyde, the P450 and NADPH-P450 reductase concentrations were reduced (to 0.01 μM and 0.04 μM, respectively), and the reaction volume was increased (to 1 ml) to maximize sensitivity. The sterols (stored at 4 °C) were prepared as described above and were heated to 37 °C and sonicated prior to use. Sterol working stocks were diluted in HPCD to ensure a constant concentration of cyclodextrin in each reaction. […] Accordingly, all reactions were done with this concentration of glycerol.
(§2) Reactions were preincubated (5 min, 37 °C) prior to initiation with an NADPH-regenerating system (0.5 mM NADP^+, 10 mM glucose 6-phosphate, and 2 μg ml^−1 glucose 6-phosphate dehydrogenase) ([60]) and were stopped after 5 min with the addition of CH2Cl2 (5 ml). […] For the 14α-aldehyde, the times of preincubation and reaction were reduced (to 2 min and 1 min, respectively). The quenched mixture was centrifuged (2000g, 5 min), and 4 ml of the bottom (organic) layer was transferred to vials and brought to dryness under a stream of N2 gas. The dried residue was resuspended in CH3OH (100 μl) and was analyzed by UPLC using a 2.1 mm × 100 mm (1.7 μm) octadecylsilane (C18) column (held at 25 °C) and a Waters Acquity UPLC system. Samples (4 °C) were injected (10 μl) at a flow rate of 0.20 ml min^−1 using an isocratic mobile phase of CH3CN (only). The product (FF-MAS) was detected using a Waters Acquity photodiode array detector set at 250 nm (Fig. 4B). Data were processed using the MassLynx software (http://www.waters.com/waters/en_US/MassLynx-Mass-Spectrometry-Software-/nav.htm?cid=513164&locale=en_US), and the amount of product formed was calculated by comparison to a twelve-point dihydro FF-MAS standard curve. Determination of kcat and Km for each reaction was carried out by fitting the data to a Michaelis–Menten hyperbola, which was done using GraphPad Prism.

[8] = substrate: CC(C)CCCC(C)[C@H]1CC[C@@]2(C)C3=C(CC[C@]12C)[C@@]1(C)CC[C@H](O)C(C)(C)C1CC3; assay: purified protein, by the assay type; conditions: pH 7.4
[9] = substrate: CC(C)CCCC(C)[C@H]1CC[C@@]2(C=O)C3=C(CC[C@]12C)[C@@]1(C)CC[C@H](O)C(C)(C)C1CC3; assay: purified protein, by the assay type; conditions: other: oxidation to dihydro FF-MAS (epi-dihydro FF-MAS from epi substrate), 37 °C, pH 7.4
Protocol: as §1, §2

[10] = substrate: CC(C)CCCC(C)[C@H]1CC[C@@]2(CO)C3=C(CC[C@]12C)[C@@]1(C)CC[C@H](O)C(C)(C)C1CC3; assay: purified protein, by the assay type; conditions: other: oxidation to dihydro FF-MAS (epi-dihydro FF-MAS from epi substrate), 37 °C, pH 7.4
Protocol: as §1, §2

Q: Which “k^+ of sterol binding to P450 51A1 (kon) used for fitting” value ([1]; all kon set at this value) does the source give for `CC(C)CCC[C@@H](C)[C@H]1CC=C2C3=C(CC[C@@]21C)[C@@]1(C)CC[C@H](O)C(C)(C)[C@@H]1CC3` [dihydro FF-MAS, 24,25-dihydro FF-MAS] here?
A: The value was 2e+06 M⁻¹ s⁻¹.

Q: And the “k^- of sterol binding to P450 51A1 (koff) used for fitting” value ([1]; optimized model)?
A: Its value is 2.0 s⁻¹.

Q: What about the Kd ([2]; 1.0 μM P450 51A1, quadratic fit, read-out: Kd) of the same molecule?
A: Its Kd is 1400 nM.

Q: What about the koff [3] of the same molecule?
A: The koff was 2 s⁻¹.

Q: What about the “concentration in single-turnover reaction” value (shortened to “concentration”) ([4]; time 0.05 s, start 7 µM dihydrolanosterol) of the same molecule?
A: The value was 0 µM.

Q: And the “concentration” value ([4]; time 0.1 s)?
A: The value was 0 µM.

Q: And the “concentration” value ([4]; time 0.15 s)?
A: Its value is 0.2821 µM.

Q: And the “concentration” value ([4]; time 0.2 s)?
A: The value was 0.4249 µM.

Q: And the “concentration” value ([4]; time 0.3 s)?
A: The value was 0.7518 µM.

Q: What about the “concentration” value ([4]; time 0.4 s) of the same molecule?
A: Its value is 1.2019 µM.

Q: And the “concentration” value ([4]; time 0.6 s)?
A: Its value is 2.506 µM.

Q: What about the “concentration” value ([4]; time 0.8 s) of the same molecule?
A: The value was 3.0184 µM.

Q: And the “concentration” value ([4]; time 1 s)?
A: Its value is 4.0537 µM.

Q: What about the “concentration” value ([4]; time 1.2 s) of the same molecule?
A: Its value is 4.494 µM.

Q: What about the “concentration” value ([4]; time 1.6 s) of the same molecule?
A: The value was 4.8181 µM.

Q: And the “concentration” value ([4]; time 2 s)?
A: The value was 5.2031 µM.

Q: What about the “concentration” value ([4]; time 3 s) of the same molecule?
A: The value was 5.8863 µM.

Q: What about the “concentration” value ([4]; time 4 s) of the same molecule?
A: The value was 6.6353 µM.

Q: And the “concentration” value ([4]; time 7 s)?
A: The value was 7 µM.

Q: Which results are given for `CC(C)CCCC(C)[C@H]1CC[C@@]2(C)C3=C(CC[C@]12C)[C@@]1(C)CC[C@@H](O)C(C)(C)C1CC3` (stereo partly drawn) [epi-dihydrolanosterol, epi-Dihydrolanosterol]?
A: kcat [5]: 0.42 ± 0.03 s⁻¹; Kd [2]: 14 nM

Q: How did the “pseudo-first-order observed rate of binding” value [6] turn out when `CC(=O)N1CCN(c2ccc(OCC3COC(Cn4ccnc4)(c4ccc(Cl)cc4Cl)O3)cc2)CC1` (centres unmarked) [ketoconazole] was run?
A: The value was 25 s⁻¹.

B1: human P450 51A1 (Homo sapiens) (protein)
chain: MAAAAGMLLLGLLQAGGSVLGQAMEKVTGGNLLSMLLIACAFTLSLVYLIRLAAGHLVQLPAGVKSPPYIFSPIPFLGHAIAFGKSPIEFLENAYEKYGPVFSFTMVGKTFTYLLGSDAAALLFNSKNEDLNAEDVYSRLTTPVFGKGVAYDVPNPVFLEQKKMLKSGLNIAHFKQHVSIIEKETKEYFESWGESGEKNVFEALSELIILTASHCLHGKEIRSQLNEKVAQLYADLDGGFSHAAWLLPGWLPLPSFRRRDRAHREIKDIFYKAIQKRRQSQEKIDDILQTLLDATYKDGRPLTDDEVAGMLIGLLLAGQHTSSTTSAWMGFFLARDKTLQKKCYLEQKTVCGENLPPLTYDQLKDLNLLDRCIKETLRLRPPIMIMMRMARTPQTVAGYTIPPGHQVCVSPTVNQRLKDSWVERLDFNPDRYLQDNPASGEKFAYVPFGAGRHRCIGENFAYVQIKTIWSTMLRLYEFDLIDGYFPTVNYTTMIHTPENPVIRYKRRSK
Q: What does the source list for B1?
A: Km [7]: 2.0 ± 0.4 µM; kcat/Km ([8]; other: conversion to dihydro FF-MAS, isotope effect comparison): 1.3 (±0.2) × 10^5 M^−1 s^−1; Km ([8]; other: oxidation to dihydro FF-MAS (epi-dihydro FF-MAS from epi substrate), 37 °C): 5.0 ± 0.6 µM; Km [9]: 5.4 ± 0.7 µM; kcat [9]: 1.7 ± 0.1 s⁻¹; Km [10]: 4.3 ± 0.4 µM; kcat [10]: 0.67 ± 0.03 s⁻¹
